Measured values taken from ChEMBL document CHEMBL1139191, “Discovery and biological evaluation of adamantyl amide 11beta-HSD1 inhibitors” (Bioorg Med Chem Lett, 2007).

Key:
[1] = target: 11-beta-hydroxysteroid dehydrogenase 1 (Homo sapiens, UniProt P28845); assay: Inhibition of human 11beta-HSD1 expressed in HEK293 cells after 2 hrs by scintillation proximity assay; type: cell-based
[2] = target: T1, 11-beta-hydroxysteroid dehydrogenase type 2 (Homo sapiens) (UniProt P80365); assay: Inhibition of human 11beta-HSD2 at 10 uM by scintillation proximity assay
T1 sequence (whole entry): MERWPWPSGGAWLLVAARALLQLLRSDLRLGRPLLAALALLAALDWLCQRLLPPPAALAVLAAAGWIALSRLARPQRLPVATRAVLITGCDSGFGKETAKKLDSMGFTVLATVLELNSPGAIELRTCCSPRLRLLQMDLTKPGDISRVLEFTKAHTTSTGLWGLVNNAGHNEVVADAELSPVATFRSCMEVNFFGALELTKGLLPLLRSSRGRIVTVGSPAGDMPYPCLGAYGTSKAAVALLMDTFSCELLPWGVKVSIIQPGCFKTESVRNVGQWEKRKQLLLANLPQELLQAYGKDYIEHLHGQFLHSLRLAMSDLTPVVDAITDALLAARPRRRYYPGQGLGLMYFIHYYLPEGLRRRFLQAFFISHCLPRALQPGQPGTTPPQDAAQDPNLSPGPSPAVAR

[3] = target: 11-beta-hydroxysteroid dehydrogenase 1 (Mus musculus, UniProt P50172); assay: Inhibition of mouse 11beta-HSD1 expressed in CHO cells after 4 hrs by scintillation proximity assay; type: cell-based
Mus musculus [4] = assay: Inhibition of HSD1 in C57BL/6 mouse liver at 10 mg/kg, ip; type: functional; conditions: C57BL/6, Liver, route intraperitoneal
Mus musculus [5] = assay: Inhibition of HSD1 in C57BL/6 mouse adipose tissue at 10 mg/kg, ip; type: functional; conditions: C57BL/6, Adipose tissue, route intraperitoneal
Mus musculus [6] = assay: Inhibition of HSD1 in C57BL/6 mouse brain at 10 mg/kg, ip; type: functional; conditions: C57BL/6, Brain, route intraperitoneal
Mus musculus [7] = assay: Inhibition of HSD1 in C57BL/6 mouse kidney at 10 mg/kg, ip; type: functional; conditions: C57BL/6, Kidney, route intraperitoneal

11-beta-hydroxysteroid dehydrogenase 1 (Homo sapiens, UniProt P28845), sequence (P28845 whole entry): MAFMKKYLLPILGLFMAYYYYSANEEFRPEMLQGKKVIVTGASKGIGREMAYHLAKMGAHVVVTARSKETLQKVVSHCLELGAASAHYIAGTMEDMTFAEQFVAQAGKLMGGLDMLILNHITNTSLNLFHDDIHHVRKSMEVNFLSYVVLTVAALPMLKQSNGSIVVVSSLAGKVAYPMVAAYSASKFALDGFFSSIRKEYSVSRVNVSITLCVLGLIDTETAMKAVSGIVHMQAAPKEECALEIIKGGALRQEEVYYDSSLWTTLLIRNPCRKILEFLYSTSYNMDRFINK
11-beta-hydroxysteroid dehydrogenase 1 (Mus musculus, UniProt P50172), sequence (P50172 whole entry): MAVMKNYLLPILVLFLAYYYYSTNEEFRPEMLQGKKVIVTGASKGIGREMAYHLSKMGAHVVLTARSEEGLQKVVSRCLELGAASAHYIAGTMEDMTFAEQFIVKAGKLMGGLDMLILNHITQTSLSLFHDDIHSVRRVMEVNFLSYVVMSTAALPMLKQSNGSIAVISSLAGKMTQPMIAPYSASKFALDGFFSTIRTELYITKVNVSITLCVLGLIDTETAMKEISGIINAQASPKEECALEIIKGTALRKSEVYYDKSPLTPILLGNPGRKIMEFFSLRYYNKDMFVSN

SMILES | IC50 [1] [µM] | inhibition [2] [%] | other results
O=C(N1CCCCC1)C12CC3CC(CC(O)(C3)C1)C2 | 7.3 | 9 | 
O=C(N1CCC2CCCCC2C1)C12CC3CC(CC(C3)C1)C2 (stereo not given) | 0.846 | 0 | IC50 [3]: 230 nM
CCN1CCN(C(=O)Cc2ccccc2)CC1 | 7.2 | 11 | 
O=C(N1CCN(S(=O)(=O)c2ccccc2)CC1)C12CC3CC(CC(C3)C1)C2 | > 100 | 35 | 
Cc1ccc(C23CC4CC(CC(C(=O)N5CCN(S(=O)(=O)c6ccccc6)CC5)(C4)C2)C3)cc1 | 64 | 48 | 
Cc1ccc(C23CC4CC(CC(C(=O)N5CCN(c6ccccc6)CC5)(C4)C2)C3)cc1 | 7.3 |  | 
O=C(N1CCCc2ccccc21)C12CC3CC(CC(C3)C1)C2 | 1.86 | 0 | IC50 [3]: 481 nM
COCCN1CCN(C(=O)C23CC4CC(C2)CC(c2ccc(C)cc2)(C4)C3)CC1 | 2.1 | 41 | 
Cc1ccc(C23CC4CC(CC(C(=O)N5CCN(Cc6ccncc6)CC5)(C4)C2)C3)cc1 | 8.1 | 0 | 
Cc1ccc(C23CC4CC(CC(C(=O)N5CCN(C(=O)c6ccccc6)CC5)(C4)C2)C3)cc1 | 36 | 0 | 
Cc1ccc(C23CC4CC(CC(C(=O)N5CCN(CCc6ccccc6)CC5)(C4)C2)C3)cc1 | 1.9 | 53 | 
CCN1CCN(C(=O)C23CC4CC(C2)CC(c2ccc(OC)cc2)(C4)C3)CC1 | 0.6 | 51 | 
CCN1CCN(C(=O)C2CCC(C(C)(C)C)CC2)CC1 (stereo not given) | 20 | 0 | IC50 [3]: 1200 nM
CCN1CCN(C(=O)C(C)(C)C)CC1 | > 100 | 0 | 
Cc1ccc(C23CC4CC(CC(C(=O)N5CCN(S(=O)(=O)Cc6ccccc6)CC5)(C4)C2)C3)cc1 | 7.7 | 26 | 
CCN1CCN(C(=O)C2=C(C)c3ccccc3C2)CC1 | 15 | 0 | 
O=C(N1CCc2ccccc2C1)C12CC3CC(CC(C3)C1)C2 | 5.6 |  | 
CCN1CCN(C(=O)c2ccccc2)CC1 | > 100 | 0 | 
Cc1ccc(C23CC4CC(CC(C(=O)N5CCN(CCO)CC5)(C4)C2)C3)cc1 | 0.498 | 40 | IC50 [3]: 43 nM
Cc1ccc(C23CC4CC(CC(C(=O)N5CCN(C(C#N)c6ccccc6)CC5)(C4)C2)C3)cc1 (stereo not given) | 2.1 | 48 | 
Cc1ccc(C23CC4CC(CC(C(=O)N5CCN(Cc6ccccc6)CC5)(C4)C2)C3)cc1 | 1.5 | 80 | 
O=C(C1C2CC3CC(C2)CC1C3)N1CCCCC1 (stereo not given) | 0.2 | 39 | 
O=C(N1CCN(S(=O)(=O)Cc2ccccc2)CC1)C12CC3CC(CC(C3)C1)C2 | 13 | 39 | 
Cc1ccc(C23CC4CC(CC(C(=O)N5CCN(C(C#N)C(C)C)CC5)(C4)C2)C3)cc1 (stereo not given) | 10 | 56 | 
CCN1CCN(C(=O)C2CCCCC2)CC1 | 53 | 0 | 
CCN1CCN(C(=O)C2(c3ccc(F)cc3)CCCC2)CC1 | 12 | 0 | 
Cc1ccc(C23CC4CC(CC(C(=O)N5CCN(C)CC5)(C4)C2)C3)cc1 | 0.08 | 0 | IC50 [3]: 81 nM; inhibition in vivo at 10 mg/kg (Mus musculus [4]): 63%; inhibition in vivo at 10 mg/kg (Mus musculus [5]): 54%; inhibition in vivo at 10 mg/kg (Mus musculus [6]): 39%; inhibition in vivo at 10 mg/kg (Mus musculus [7]): 0%
CCN1CCN(C(=O)C2CC2)CC1 | > 100 | 0 | 

Continued, in another order:

IC50 [1] [µM] | inhibition [2] [%] | SMILES | other results
0.756 | 11 | CCN1CCN(C(=O)C23CC4CC(CC(C4)C2)C3)CC1 | IC50 [3]: 300 nM
12 | 7 | COCCN1CCN(C(=O)C23CC4CC(CC(C4)C2)C3)CC1 | 
4.1 | 1 | CCN1CCN(C(=O)CC23CC4CC(CC(C4)C2)C3)CC1 | 
8.2 | 31 | O=C(N1CCNCC1)C12CC3CC(CC(C3)C1)C2 | 
> 100 | 0 | O=C(N1CCN(c2ccccc2)CC1)C12CC3CC(CC(C3)C1)C2 | 
53 |  | CCN1CCN(C(=O)C23CC4CC(CC(O)(C4)C2)C3)CC1 | 
0.498 | 37 | O=C(N1CCCC1)C12CC3CC(CC(C3)C1)C2 | 
0.7 | 13 | CN1CCN(C(=O)C23CC4CC(CC(C4)C2)C3)CC1 | 
7.2 | 0 | O=C(N1CCN(Cc2ccncc2)CC1)C12CC3CC(CC(C3)C1)C2 | 
48 | 0 | CCN1CCN(C(=O)CCC2CCCCC2)CC1 | 
1.47 | 31 | O=C(N1CCN(CCO)CC1)C12CC3CC(CC(C3)C1)C2 | IC50 [3]: 494 nM
7.2 | 7 | O=C(N1CCN(Cc2ccccc2)CC1)C12CC3CC(CC(C3)C1)C2 | 
0.193 | 0 | O=C(N1CCCCC1)C12CC3CC(CC(C3)C1)C2 | IC50 [3]: 134 nM
20 | 45 | CC(C)C(C#N)N1CCN(C(=O)C23CC4CC(CC(C4)C2)C3)CC1 (stereo not given) | 
44 | 0 | CCN1CCN(C(=O)C2CC3CCC2C3)CC1 (stereo not given) | 
47 | 0 | O=C(N1CCN(CCc2ccccc2)CC1)C12CC3CC(CC(C3)C1)C2 | 
> 100 | 20 | O=C(c1ccccc1)N1CCN(C(=O)C23CC4CC(CC(C4)C2)C3)CC1 | 
> 100 | 40 | CCN1CCN(C(=O)CC2CCCCC2)CC1 | 
1 | 0 | CCN1CCN(C(=O)C23CC4CC(CC(Cc5ccccc5)(C4)C2)C3)CC1 | 
24 | 39 | N#CC(c1ccccc1)N1CCN(C(=O)C23CC4CC(CC(C4)C2)C3)CC1 (stereo not given) | 
